Laboratory results reported in ChEMBL document CHEMBL3603815, “Exploring new Probenecid-based carbonic anhydrase inhibitors: Synthesis, biological evaluation and docking studies” (Bioorg Med Chem, 2015).

target: Carbonic anhydrase 1 (Homo sapiens, UniProt P00915); assay: Inhibition of human carbonic anhydrase-1 incubated for 15 mins by stopped-flow CO2 hydration assay
Sequence (P00915 whole entry): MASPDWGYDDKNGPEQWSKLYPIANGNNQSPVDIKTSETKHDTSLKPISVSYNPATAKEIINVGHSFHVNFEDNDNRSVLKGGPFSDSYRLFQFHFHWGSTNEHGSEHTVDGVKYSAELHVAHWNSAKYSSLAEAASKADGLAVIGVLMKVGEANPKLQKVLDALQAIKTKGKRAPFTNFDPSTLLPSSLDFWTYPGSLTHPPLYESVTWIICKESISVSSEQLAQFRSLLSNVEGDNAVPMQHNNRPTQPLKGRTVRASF

Ki	Compound
> 10000 nM	CCCN(CCC)S(=O)(=O)c1ccc(C(=O)N[C@@H](CCSC)C(N)=O)cc1

target: Carbonic anhydrase 9 (Homo sapiens, UniProt Q16790); assay: Inhibition of human carbonic anhydrase-9 incubated for 15 mins by stopped-flow CO2 hydration assay

Compound	Ki
CCCN(CCC)S(=O)(=O)c1ccc(C(=O)N[C@@H](CC(C)C)C(=O)O)cc1	26 nM
CCCN(CCC)S(=O)(=O)c1ccc(C(=O)N[C@@H](Cc2ccccc2)C(=O)O)cc1	210 nM
CCCN(CCC)S(=O)(=O)c1ccc(C(=O)N[C@@H](Cc2c[nH]c3ccccc23)C(=O)O)cc1	25 nM
CCCN(CCC)S(=O)(=O)c1ccc(C(=O)NCC(N)=O)cc1	1.9 nM
CCCN(CCC)S(=O)(=O)c1ccc(C(=O)N[C@@H](C)C(N)=O)cc1	15 nM
CCCN(CCC)S(=O)(=O)c1ccc(C(=O)N[C@@H](Cc2ccccc2)C(N)=O)cc1	25 nM
CCCN(CCC)S(=O)(=O)c1ccc(C(=O)N[C@@H](CO)C(N)=O)cc1	2.6 nM
CCCN(CCC)S(=O)(=O)c1ccc(C(=O)N[C@@H](Cc2ccc(O)cc2)C(N)=O)cc1	21 nM
CCCN(CCC)S(=O)(=O)c1ccc(C(=O)N[C@@H](CCCCN)C(N)=O)cc1	27 nM
CCCN(CCC)S(=O)(=O)c1ccc(C(=O)N[C@@H](CCCNC(=N)N)C(N)=O)cc1	20 nM
CCCN(CCC)S(=O)(=O)c1ccc(C(=O)N[C@@H](CS)C(N)=O)cc1	28 nM

Second part, the molecule after the results:

Ki	Compound
27 nM	CCCN(CCC)S(=O)(=O)c1ccc(C(=O)N[C@@H](C)C(=O)O)cc1
27 nM	CCCN(CCC)S(=O)(=O)c1ccc(C(=O)N[C@@H](CO)C(=O)O)cc1
32 nM	CCCN(CCC)S(=O)(=O)c1ccc(C(=O)N[C@@H](Cc2ccc(O)cc2)C(=O)O)cc1
31 nM	CCCN(CCC)S(=O)(=O)c1ccc(C(=O)N[C@@H](CCC(=O)O)C(=O)O)cc1
32 nM	CCCN(CCC)S(=O)(=O)c1ccc(C(=O)N[C@@H](CCCCN)C(=O)O)cc1
26 nM	CCCN(CCC)S(=O)(=O)c1ccc(C(=O)N[C@@H](CCCNC(=N)N)C(=O)O)cc1
61 nM	CCCN(CCC)S(=O)(=O)c1ccc(C(=O)N[C@@H](CCSC)C(=O)O)cc1
150 nM	CCCN(CCC)S(=O)(=O)c1ccc(C(=O)N[C@@H](CC(C)C)C(N)=O)cc1

target: Carbonic anhydrase 12 (Homo sapiens, UniProt O43570); assay: Inhibition of human carbonic anhydrase-12 incubated for 15 mins by stopped-flow CO2 hydration assay
Sequence (O43570 whole entry): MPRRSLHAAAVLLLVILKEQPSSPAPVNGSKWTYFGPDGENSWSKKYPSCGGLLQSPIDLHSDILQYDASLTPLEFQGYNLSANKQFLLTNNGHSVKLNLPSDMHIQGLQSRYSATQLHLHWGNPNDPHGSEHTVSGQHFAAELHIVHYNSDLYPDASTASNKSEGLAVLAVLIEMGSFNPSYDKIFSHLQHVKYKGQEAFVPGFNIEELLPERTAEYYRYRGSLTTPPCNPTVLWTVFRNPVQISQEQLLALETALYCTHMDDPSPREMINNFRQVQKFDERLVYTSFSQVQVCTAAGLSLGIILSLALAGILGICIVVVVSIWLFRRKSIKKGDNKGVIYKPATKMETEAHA

Ki	Compound
> 10000 nM	CCCN(CCC)S(=O)(=O)c1ccc(C(=O)NCC(=O)O)cc1
